In assay [1] the test system is 20S proteasome. Conditions: cited from earlier work.
The test system of assay [2] is E. coli indicator strain ATCC 27856. Put plainly: Antibacterial activity against E. coli indicator strain. The settings on record: data not shown. In kind it is cell-based.

In the case of `C=C(NC(=O)C(=C)NC(=O)c1csc(C2=N[C@@H]3c4csc(n4)[C@H]4NC(=O)c5csc(n5)[C@H]([C@](C)(O)[C@@H](C)O)NC(=O)[C@H]5CSC(=N5)/C(=C/C)NC(=O)[C@H]([C@@H](C)O)NC(=O)c5csc(n5)[C@]3(CC2)NC(=O)[C@H](C)NC(=O)C(=C)NC(=O)[C@H](C)NC(=O)[C@H]([C@@H](C)CC)N[C@@H]2C=Cc3c([C@H](C)O)cc(nc3[C@H]2O)C(=O)O[C@@H]4C)n1)C(N)=O` [Thiostrepton A], the “proteasome inhibitory properties (in words)” value in assay [1] is on record as “active proteasome inhibitors”. Also, the “antibacterial activity against E. coli” value in assay [2] is recorded as “Neither thiostrepton A nor its Ala4 variants displayed any antibacterial activity”.

Regarding `C/C=C(\NC(=O)c1csc(-c2csc(-c3ccc4c(n3)-c3csc(n3)[C@H]([C@@H](C)O)NC(=O)c3csc(n3)[C@H](C(C)C)NC(=O)c3csc(n3)/C(=C/C)NC(=O)[C@H]([C@@H](C)O)NC(=O)c3csc-4n3)n2)n1)C(=O)NC[C@@H](C)O` [micrococcin P1], in assay [1], the “proteasome inhibitory properties (in words)” value was “have not yet revealed any proteasome inhibitory properties”.

For `C=C(NC(=O)C(=C)NC(=O)c1csc(C2=NC3c4csc(n4)[C@H]4NC(=O)c5csc(n5)[C@H]([C@](C)(O)[C@@H](C)O)NC(=O)[C@H]5CSC(=N5)/C(=C/C)NC(=O)[C@H]([C@@H](C)O)NC(=O)c5csc(n5)[C@@]3(CC2)NC(=O)[C@H](C)NC(=O)C(=C)NC(=O)C(=C)NC(=O)[C@H](C(C)C)N[C@@H]2C=Cc3c([C@H](C)O)cc(nc3[C@H]2O)C(=O)O[C@@H]4C)n1)C(N)=O` (some centres unmarked) [siomycin], the “proteasome inhibitory properties (in words)” value in assay [1] is given as “active proteasome inhibitors”.

With `C/C=C(\NC(=O)c1csc(-c2csc(-c3ccc4c(n3)-c3csc(n3)[C@H]([C@@H](C)O)NC(=O)c3csc(n3)[C@H](C(C)(C)O)NC(=O)c3csc(n3)/C(=C/C)NC(=O)[C@H]([C@@H](C)O)NC(=O)c3csc-4n3)n2)n1)C(=O)NC[C@@H](C)O` [thiocillin I], in assay [1], the “proteasome inhibitory properties (in words)” value is “have not yet revealed any proteasome inhibitory properties”.

The values are drawn from PMC4826033 (ACS chemical biology, 2015).
